Test results reported in ChEMBL document CHEMBL5344408, “Pyrimidine thioethers: A novel class of antidepressant agents, endowed with anxiolytic, performance enhancing and nootropic activity” (Eur J Med Chem, 2023).
Values joined by “and” are separate entries in the source; they are usually repeats but may differ in a detail not shown here. Equal entries are not always repeated. Active and inactive are the calls of the source. No cut-off for these calls is given here.

Columns and labels:
Mus musculus [1] = assay: Anxiolytic activity in Albino mouse assessed as increase in motor activity by measuring increase in number of square crossing at […], po administered through intragastric tube measured after 40 mins by open field test; type: functional, organism-based
Mus musculus [2] = assay: Anxiolytic activity in Albino mouse assessed as increase in number of central zone crossing at […], po administered through intragastric tube measured after 40 mins by elevated plus maze test; type: functional, organism-based
Mus musculus [3] = assay: Anxiolytic activity in Albino mouse assessed as increase in number of open arm entries at […], po administered through intragastric tube measured after 40 mins by elevated plus maze test; type: functional, organism-based
Mus musculus [4] = assay: Anxiolytic activity in Albino mouse assessed as increase in time spent in open arm entries at […], po administered through intragastric tube measured after 40 mins by elevated plus maze test; type: functional, organism-based
Mus musculus [5] = assay: Effect on memory formation in Albino mouse assessed as memory of negative experience by measuring dark room entry at […], po administered through intragastric tube measured after 7 days by conditioned avoidance test; type: functional, organism-based; settings: time 7.0 day
Mus musculus [6] = assay: Nootropic activity in Albino mouse assessed as quick escape from restricting factor in aversive environment at […], po administered through intragastric tube measured after 7 days by conditioned avoidance test; type: functional, organism-based; settings: time 7.0 day
Mus musculus [7] = assay: Anxiolytic activity in Albino mouse assessed as rapid open arm entry at […], po administered through intragastric tube measured after 40 mins by elevated plus maze test; type: functional, organism-based
Mus musculus [8] = assay: Antidepressant activity in Albino mouse with social depression assessed as increase in interaction frequency with partner mouse at […], po administered through intragastric tube measured after 40 mins by social interaction test; type: functional, organism-based
Mus musculus [9] = assay: Antidepressant activity in Albino mouse with social depression assessed as increase in time of interaction with partner mouse at […], po administered through intragastric tube measured after 40 mins by social interaction test; type: functional, organism-based
[10] = Toxicity in po dosed female Albino mouse; type: organism-based; settings: in vivo

| Compound | Activity (Mus musculus [1]) | Activity (Mus musculus [2]) | Activity (Mus musculus [3]) | Activity (Mus musculus [4]) | Activity (Mus musculus [5]) | Activity (Mus musculus [6]) | Activity (Mus musculus [7]) | Activity (Mus musculus [8]) | Activity (Mus musculus [9]) | LD50 ([10]; female, Albino, read-out: LD50) | LD50 ([10]; po) |
| --- | --- | --- | --- | --- | --- | --- | --- | --- | --- | --- | --- |
| CCCC(C)c1c(O)nc(SCCN2CCCC2)[nH]c1=O (stereo unspecified) | inactive | Active | Active | Active | inactive |  |  |  |  |  |  |
| CSCCc1c(O)nc(SCCN2CCCCC2)[nH]c1=O |  | Active | Active |  | inactive | inactive |  |  |  |  |  |
| CC(C)c1c(O)nc(N2CCSCC2)[nH]c1=O |  | Active | Active | Active | inactive | Active | Active |  |  |  |  |
| CSCCc1c(O)nc(SCCN2CCCC2)[nH]c1=O | inactive | Active | Active | Active | inactive |  | Active |  |  |  |  |
| CCCC(C)c1c(O)nc(SCCN(CC)CC)[nH]c1=O.Cl (stereo unspecified) |  | Active | Active | Active | inactive | inactive | Active | Active | Active | 1840 mg/kg and 5720 µmol/kg |  |
| CCN(CC)CCSc1nc(O)c(C(C)C)c(O)n1 |  |  |  | Active | Active |  | Active |  |  |  |  |
| CC(C)CCc1c(O)nc(SCCN2CCCCC2)[nH]c1=O |  |  |  |  | inactive | Active | inactive |  |  |  |  |
| CC(C)c1c(O)nc(SCCN2CCCCC2)[nH]c1=O |  | Active | Active | Active | Active |  | Active |  |  |  |  |
| CC(C)CCc1c(O)nc(SCCN2CCCC2)[nH]c1=O |  |  |  |  | inactive |  | inactive |  |  |  |  |
| CCN(CC)CCSc1nc(O)c(CCSC)c(=O)[nH]1 | Active |  |  |  | inactive | Active | inactive |  |  |  |  |
| CCCC(C)c1c(O)nc(SCCN2CCCCC2)[nH]c1=O (stereo unspecified) |  |  | Active |  | inactive |  | inactive |  |  |  |  |
| CSCCSc1nc(O)c(C(C)C)c(=O)[nH]1 | Active | Active | Active |  | Active | inactive | Active |  |  |  |  |
| CCN(CC)CCSc1nc(O)c(CCC(C)C)c(=O)[nH]1 | Active |  |  |  | inactive |  | inactive |  |  |  |  |
| CSCCc1c(O)nc(SCCN(C)C)[nH]c1=O | inactive | Active | Active |  | inactive |  |  |  |  |  |  |
| CC(C)CCc1c(O)nc(SCCN(C)C)[nH]c1=O |  |  |  |  | inactive | inactive |  |  |  |  |  |
| CCCC(C)c1c(O)nc(SCCN(C)C)[nH]c1=O (stereo unspecified) | Active | Active | Active | Active | inactive | Active | Active |  |  |  |  |
| CC(C)c1c(O)nc(SCCN2CCCC2)[nH]c1=O.Cl | Active |  |  |  | inactive |  |  |  |  |  | 544 mg kg-1 and 1563 umol/Kg |
| CC(C)c1c(O)nc(SCCN(C)C)nc1O |  | Active | Active | Active | Active | inactive | Active |  |  |  |  |
